Drawing on patent US7566739B2, “Substituted N-sulfonylaminophenylethyl-2-phenoxyacetamide compounds as VR1 receptor antagonists” (Pfizer Inc., priority 2005, dated 2009), this text covers IC50 and half-life for five compounds.

One data set deals with human VR1 (Homo sapiens, UniProt Q8NER1). The data set can be described thus: Human VR1 antagonist assay (Ca2+ imaging, capsaicin stimulation). It is filed as cell-based. Particulars: human VR1 expressing cells; concentration reducing capsaicin-evoked Ca2+ influx by 50%; capsaicin 300 nM; read-out: hVR1 IC50. The text has this: VR1 antagonistic activity can be determined by the Ca^2+ imaging assay using human VR1 highly expressing cells. The cells that highly express human VR1 receptors are obtainable from several different conventional methods. The one standard method is cloning from human Dorsal Root Ganglion (DRG) or kidney according to the methods such as described in the journal article; Nature, 389, pp 816-824, 1997. Alternatively VR1 receptors highly expressing human keratinocytes are also known and published in the journal article (Biochemical and Biophysical Research Communications, 291, pp 124-129, 2002). […] Such a genetic modification method was described in detail; Nat. Biotechnol., 19, pp 440-445, 2001. The cells that express human VR1 receptors were maintained in culture flask at 37° C. in an environment containing 5% CO2 until use in the assay. The intracellular Ca^2+ imaging assay to determine VR1 antagonistic activities was done according to the following procedures. The culture medium was removed from the flask and fura-2/AM fluorescent calcium indicator was added to the flask at a concentration of 5 μM in the medium. The flask was placed in CO2 incubator and incubated for 1 hour. Then the cells expressing the human VR1 receptors were detached from the flask follow by washing with phosphate buffer saline, PBS(−) and re-suspended in assay buffer. The 80 μl of aliquot of cell suspension (3.75×10^5 cells/ml) was added to the assay plate and the cells were spun down by centrifuge (950 rpm, 20° C., 3 minutes). The capsaicin-induced changes in the intracellular calcium concentration were monitored using FDSS 6000 (Hamamatsu Photonics, Japan), a fluorometric imaging system. The cell suspension in Krebs-Ringer HEPES (KRH) buffer (115 mM NaCl, 5.4 mM KCl, 1 mM MgSO4, 1.8 mM CaCl2, 11 mM D-Glucose, 25 mM HEPES, 0.96 mM Na2HPO4, pH 7.3) was pre-incubated with varying concentrations of the test compounds or KRH buffer (buffer control) for 15 minutes at room temperature under dark conditions. Then the capsaicin solution, which gives 300 nM in assay mixture, was automatically added to the assay plate by the FDSS 6000. The monitoring of the changes in the fluorescence signals (λex=340 nm/380 nm, λem=510-520 nm) was initiated at 1 minute prior to the addition of capsaicin solution or acidic buffer and continued for 5 minute.
Sequence of human VR1 (Q8NER1 whole entry): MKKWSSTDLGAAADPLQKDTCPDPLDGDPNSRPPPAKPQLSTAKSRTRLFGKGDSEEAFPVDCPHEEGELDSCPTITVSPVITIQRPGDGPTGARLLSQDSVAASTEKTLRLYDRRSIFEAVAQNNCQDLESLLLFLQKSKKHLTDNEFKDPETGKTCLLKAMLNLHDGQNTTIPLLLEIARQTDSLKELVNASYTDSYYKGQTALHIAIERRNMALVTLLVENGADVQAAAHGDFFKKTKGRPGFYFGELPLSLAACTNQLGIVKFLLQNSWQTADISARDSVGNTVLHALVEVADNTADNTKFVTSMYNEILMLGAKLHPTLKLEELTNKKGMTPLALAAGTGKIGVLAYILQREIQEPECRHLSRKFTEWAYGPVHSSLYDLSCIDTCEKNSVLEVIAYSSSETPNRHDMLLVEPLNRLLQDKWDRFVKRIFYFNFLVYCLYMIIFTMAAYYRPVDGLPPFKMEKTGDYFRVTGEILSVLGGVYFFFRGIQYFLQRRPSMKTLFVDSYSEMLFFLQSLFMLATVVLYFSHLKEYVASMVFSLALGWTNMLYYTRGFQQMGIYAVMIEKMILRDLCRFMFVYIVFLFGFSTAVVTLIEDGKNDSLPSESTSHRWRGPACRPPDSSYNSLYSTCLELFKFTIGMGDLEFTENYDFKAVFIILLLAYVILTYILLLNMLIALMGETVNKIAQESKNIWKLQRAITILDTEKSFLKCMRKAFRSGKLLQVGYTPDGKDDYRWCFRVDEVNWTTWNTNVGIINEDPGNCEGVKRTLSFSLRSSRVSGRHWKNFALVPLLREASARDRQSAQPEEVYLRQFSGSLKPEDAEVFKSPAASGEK

Data set [1] can be described thus: Half-life in human liver microsomes (HLM). In kind it is in vitro ADME. The conditions noted are these: human liver microsomes (HLM, HL101), 1 μM compound, 0.78 mg/mL HLM, pH 7.4, 37° C., NADPH. Here is the method: Test compounds (1 μM) were incubated with 3.3 mM MgCl2 and 0.78 mg/mL HLM (HL101) in 100 mM potassium phosphate buffer (pH 7.4) at 37° C. on the 96-deep well plate. The reaction mixture was split into two groups, a non-P450 and a P450 group. NADPH was only added to the reaction mixture of the P450 group. An aliquot of samples of P450 group was collected at 0, 10, 30, and 60 minute time points, where the 0 minute time point indicated the time when NADPH was added into the reaction mixture of P450 group. An aliquot of samples of non-P450 group was collected at −10 and 65 minute time points. Collected aliquots were extracted with an acetonitrile solution containing an internal standard. The precipitated protein was spun down in a centrifuge (2000 rpm, 15 min). The compound concentration in supernatant was measured by LC/MS/MS system.
The half-life value was obtained by plotting the natural logarithm of the peak area ratio of compounds/internal standard versus time. The slope of the line of best fit through the points yields the rate of metabolism (k). This was converted to a half-life value using following equations: Half-life=ln 2/k Mono-Iodoacetate (MIA)-Induced OA Model

Consider `Cc1cc([C@@H](C)NC(=O)COc2cc(F)c(C(C)(C)C)c(F)c2)ccc1NS(C)(=O)=O` [Example 1, 2-(4-TERT-BUTYL-3,5-DIFLUOROPHENOXY)-N-((1R)-1-{3-METHYL-4-[(METHYLSULFONYL)AMINO]PHENYL}ETHYL)ACETAMIDE], for which the concentration for half-maximal inhibition (IC50) on human VR1 came out at 3.13 nM. Also, in data set [1], the half-life at 1 μM was determined as 31 min.

For the compound `C[C@@H](NC(=O)COc1cc(F)c(C(C)(C)C)c(F)c1)c1ccc(NS(C)(=O)=O)c(F)c1` [Example 2, 2-(4-TERT-BUTYL-3,5-DIFLUOROPHENOXY)-N-((1R)-1-{3-FLUORO-4-[(METHYLSULFONYL)AMINO]PHENYL}ETHYL)ACETAMIDE], the 50% inhibitory concentration (IC50) on human VR1 was determined as 31.3 nM. Moreover, the half-life at 1 μM in data set [1] worked out at 12 min.

Turning to `C[C@@H](NC(=O)COc1cc(F)c(C(C)(C)C)c(F)c1)c1ccc(NS(C)(=O)=O)cc1` [Example 3, 2-(4-TERT-BUTYL-3,5-DIFLUOROPHENOXY)-N-((1R)-1-{4-[(METHYLSULFONYL)AMINO]PHENYL}ETHYL)ACETAMIDE], the IC50 on human VR1 was found to be 34.4 nM. In data set [1], the half-life at 1 μM was 48 min.

Take `C[C@@H](NC(=O)COc1cc(F)c(C(C)(C)C)c(F)c1)c1ccc(NS(C)(=O)=O)c(CO)c1` [Example 4, 2-(4-TERT-BUTYL-3,5-DIFLUOROPHENOXY)-N-((1R)-1-{3-(HYDROXYMETHYL)-4-[(METHYLSULFONYL)AMINO]PHENYL}ETHYL)ACETOAMIDE]: on human VR1, the IC50 stood at 8.7 nM. Besides, the half-life at 1 μM in data set [1] was 5.8 min.

`Cc1cc([C@@H](C)NC(=O)COc2cc(F)c(C(C)(C)C(F)(F)F)c(F)c2)ccc1NS(C)(=O)=O` [Example 5, 2-[3,5-DIFLUORO-4-(2,2,2-TRIFLUORO-1,1-DIMETHYLETHYL)PHENOXY]-N-((1R)-1-{3-METHYL-4-[(METHYLSULFONYL)AMINO]PHENYL}ETHYL)ACETAMIDE]: the 50% inhibitory concentration (IC50) on human VR1 turned out to be 7.55 nM. Besides, in data set [1], the half-life at 1 μM came out at 13 min.
